From US9408856B2, “Topical steroidal formulations” (Temple University—Of The Commonwealth System of Higher …, priority 2008, dated 2016)
“And” between values parts separate entries of the source, which are not always exact repeats. Identical values can stand only once.

Columns and labels:
[1] = tested on: TPA-stimulated epidermal DNA synthesis in mouse epidermis; experiment: TPA-induced epidermal DNA synthesis in mouse epidermis, transdermal fluasterone; assay type: in vivo, CD-1 mice; settings: 20 h
[2] = tested on: TPA-stimulated epidermal DNA synthesis in mouse epidermis; experiment: as above; assay type: in vivo, CD-1 mice; settings: TPA 2 μg (back) after carbitol vehicle only; 20 h; single mice and group mean
Procedure: In dose-response experiments the anti-hyperplastic efficacy of fluasterone in TPA-treated mouse epidermis to determine bioavailability following different routes of administration was measured. Mice were treated with a single dose of fluasterone (either orally, subcutaneously, or transdermally) followed by a single application of TPA to the shaved back one hour latter. In case of transdermal administration, fluasterone is applied in a topical formulation to the shaved abdomen to allow for systemic absorption to the back of the animal. Twenty hours after TPA application, the mice are injected with 60 μCi of [3H] thymidine, sacrificed 20 minutes later, and a 2×2 cm2 of skin from the shaved back is excised and processed for the determination of the amount of [3H] thymidine incorporated per unit of epidermal DNA. (Hennings et. al., Cancer Res. 28:543-552, 1968).
Female CD-1 mice, 40-43 days old, were obtained from Charles River Laboratories, Kingston, N.Y. The mice were housed two per cage in plastic shoebox cages on Absorbdri bedding with 12 hours of alternating light and dark in the Central Animal Facility. The mice had ad libitum access to Purina 5015 chow and acidified tap water (pH S 2.6). The mice were allowed to acclimate to the facility for approximately two weeks prior to use in an experiment. […]
The mice were weighed, marked with magic marker on the tail, and shaved on the back and the abdomen one day prior to treatment. Only those mice showing no hair regrowth were used in the experiment. Fluasterone was applied to the shaved abdomen one hour before TPA was applied to the shaved back. The mice were anesthetized and on their backs prior to topical application of TPA. […]
The mice were anesthetized with Isoflurane, and then were given an intramuscular injection of 0.1 mL solution of ketamine (50 mg/kg), xylazine (10 mg/kg) and atropine (0.1 mg/kg). Approximately 10 minutes after the i.m. injection (after the mice could not turn over when placed on their backs), the mice were treated with 5 μL of a 12.5 mg/mL fluasterone/carbitol solution to give a dose of 2.5 mg/kg. The mice were anesthetized and on their backs for approximately 30 minutes after application of fluasterone/carbitol solution. One hour after the application of fluasterone/carbitol solution, 2 μg of TPA dissolved in. 0.2 mL of acetone was applied to the shaved area on the back of each mouse. […]
The mice were anesthetized with Isoflurane, and then were given an intramuscular injection of 0.1 mL solution of ketamine (50 mg/kg), xylazine (10 mg/kg) and atropine (0.1 mg/kg). Approximately 10 minutes after the i.m. injection (after the mice could not turn over when placed on their backs), the mice were treated with 2.5 μl, of a 12.5 mg/mL fluasterone/carbitol solution to give a dose of 1.25 mg/kg. The mice were anesthetized and on their backs for approximately 30 minutes after application of fluasterone/carbitol solution. One hour after the application of fluasterone/carbitol solution, 2 μg of TPA dissolved in 0.2 mL of acetone was applied to the shaved area on the back of each mouse.
The mice were anesthetized with Isoflurane, and then were given an intramuscular injection of 0.1 mL solution of ketamine (50 mg/kg), xylazine (10 mg/kg) and atropine (0.1 mg/kg). Approximately 10 minutes after the i.m. injection (after the mice could not turn over when placed on their backs), the mice were treated with 10 μL of a 12.5 mg/mL fluasterone/Cremophor EL solution to give a dose of 5 mg/kg. The mice were anesthetized and on their backs for approximately 30 minutes after application of fluasterone/Cremophor EL solution. One hour after the application of fluasterone/Cremophor EL solution, 2 μg of TPA dissolved in 0.2 mL of acetone was applied to the shaved area on the back of each mouse.
The mice were anesthetized with Isoflurane, and then were given an intramuscular injection of 0.1 mL solution of ketamine (50 mg/kg), xylazine (10 mg/kg) and atropine (0.1 mg/kg). […]

[3] = TPA 2 μg (back) after Cremophor EL vehicle only, single mice
[4] = TPA 2 μg (back) after Cremophor EL:ethanol (50:50 v/v) vehicle only, single mice
[5] = TPA 2 μg (back) after Tween 80:ethanol (50:50 v/v) vehicle only, single mice
[6] = TPA 2 μg (back) after carbitol vehicle only, single mice
[7] = TPA 2 μg (back) after ethanol:limonene:isopropyl myristate (81:15:4) vehicle only, single mice
[8] = TPA 2 μg (back) after ethanol:limonene:isopropyl myristate (81:15:4) vehicle only, single mice and group mean
[9] = TPA 2 μg (back) after ethanol:water:Tween 80 (76:19:5) vehicle only, single mice
[10] = TPA 2 μg (back) after ethanol:water:Tween 80 (76:19:5) vehicle only, single mice and group mean

SMILES: CCCCCCCCCCCCCC(=O)O[C@@H]1[C@@H](C)[C@@]2(O)[C@@H](C=C(CO)C[C@]3(O)C(=O)C(C)=C[C@@H]23)[C@@H]2C(C)(C)[C@]12OC(C)=O [TPA, 12-O-tetradecanoylphorbol-13-acetate, reference compound]
- corrected cpm [1, 3]: 16,842 cpm and 13,849 cpm
- cpm [1, 3]: 16,877 cpm and 13,884 cpm
- μg DNA/0.2 mL [1, 3]: 28.7 μg DNA/0.2 mL and 30.4 μg DNA/0.2 mL
- cpm/μg DNA ([1]; TPA 2 μg (back) after Cremophor EL vehicle only, single mice and group mean): 586.8 cpm/μg DNA and 455.6 cpm/μg DNA and 521.2 ± 92.8 cpm/μg DNA
- corrected cpm [1, 4]: 54,709 cpm and 54,308 cpm
- cpm [1, 4]: 54,744 cpm and 54,343 cpm
- μg DNA/0.2 [1, 4]: 36.9 μg DNA/0.2 and 35.7 μg DNA/0.2
- cpm/μg DNA ([1]; TPA 2 μg (back) after Cremophor EL:ethanol (50:50 v/v) vehicle only, single mice and group mean): 1,482.6 cpm/μg DNA and 1,521.2 cpm/μg DNA
- corrected cpm [1, 5]: 4,276 cpm and 3,114 cpm
- cpm [1, 5]: 4,301 cpm and 3,139 cpm
- μg DNA/0.2 [1, 5]: 17.5 μg DNA/0.2 and 18.6 μg DNA/0.2
- cpm/μg DNA ([1]; TPA 2 μg (back) after Tween 80:ethanol (50:50 v/v) vehicle only, single mice and group mean): 244.3 cpm/μg DNA and 167.4 cpm/μg DNA
- corrected cpm [1, 6]: 6,729 cpm and 7,496 cpm
- cpm [1, 6]: 6,764 cpm and 7,531 cpm
- μg DNA/0.2 mL [1, 6]: 20.3 μg DNA/0.2 mL and 21.2 μg DNA/0.2 mL
- corrected cpm [1, 7]: 8,545 cpm and 11,109 cpm
- cpm [1, 7]: 8,574 cpm and 11,138 cpm
- cpm/μg DNA [1, 8]: 277.4 cpm/μg DNA and 322.0 cpm/μg DNA
- μg DNA/0.2 mL [1, 8]: 30.8 μg DNA/0.2 mL and 34.5 μg DNA/0.2 mL
- corrected cpm [1, 9]: 7,274 cpm and 6,557 cpm
- cpm [1, 9]: 7,303 cpm and 6,586 cpm
- cpm/μg DNA [1, 10]: 208.4 cpm/μg DNA and 186.3 cpm/μg DNA
- μg DNA/0.2 mL [1, 10]: 34.9 μg DNA/0.2 mL and 35.2 μg DNA/0.2 mL
- cpm/μg DNA [2]: 331.5 cpm/μg DNA and 353.6 cpm/μg DNA and 342.6 ± 15.6 cpm/μg DNA
